# Data: ChEMBL document CHEMBL4507288 (2021)
# Experiments:
# D(3) dopamine receptor = D(3) dopamine receptor (Homo sapiens, UniProt P35462); assay: GPCRScan assay: inhibition of D3; set-up: radioligand conc. used [nm] 0.5 – 1.8, parental cells HEKT
# Histamine H2 receptor = Histamine H2 receptor (Homo sapiens, UniProt P25021); assay: GPCRScan assay: inhibition of H2; set-up: radioligand conc. used [nm] 0.02 – 0.05, parental cells Stable HEK
# [1] = system: Tyrosine-protein kinase ABL1 (Homo sapiens), P00519 [E255K]; settings: Compound concentration 1000.0 nM
# [2] = biological target: Activin receptor type-1 (Homo sapiens) (UniProt Q04771); settings: Compound concentration 1000.0 nM
# [3] = biological target: Activin receptor type-2A (Homo sapiens) (UniProt P27037); settings: Compound concentration 1000.0 nM
# [4] = biological target: 5'-AMP-activated protein kinase catalytic subunit alpha-1 (Homo sapiens) (UniProt Q13131); settings: Compound concentration 1000.0 nM
# [5] = biological target: Ankyrin repeat and protein kinase domain-containing protein 1 (Homo sapiens) (UniProt Q8NFD2); settings: Compound concentration 1000.0 nM
# [6] = biological target: Bone morphogenetic protein receptor type-2 (Homo sapiens) (UniProt Q13873); settings: Compound concentration 1000.0 nM
# [7] = biological target: Tyrosine-protein kinase BTK (Homo sapiens) (UniProt Q06187); settings: Compound concentration 1000.0 nM
# [8] = biological target: Peripheral plasma membrane protein CASK (Homo sapiens) (UniProt O14936); settings: Compound concentration 1000.0 nM
# [9] = biological target: Cyclin-dependent kinase 2 (Homo sapiens) (UniProt P24941); settings: Compound concentration 1000.0 nM
# [10] = biological target: Cyclin-dependent kinase-like 5 (Homo sapiens) (UniProt O76039); settings: Compound concentration 1000.0 nM
# [11] = biological target: Dual specificity protein kinase CLK4 (Homo sapiens) (UniProt Q9HAZ1); settings: Compound concentration 1000.0 nM
# [12] = biological target: Casein kinase I isoform gamma-2 (Homo sapiens) (UniProt P78368); settings: Compound concentration 1000.0 nM
# [13] = biological target: Serine/threonine-protein kinase DCLK2 (Homo sapiens) (UniProt Q8N568); settings: Compound concentration 1000.0 nM
# [14] = system: Epidermal growth factor receptor (Homo sapiens), P00533 [L858R,T790M]; settings: Compound concentration 1000.0 nM
# [15] = biological target: Receptor tyrosine-protein kinase erbB-2 (Homo sapiens) (UniProt P04626); settings: Compound concentration 1000.0 nM
# [16] = biological target: Mitogen-activated protein kinase 6 (Homo sapiens) (UniProt Q16659); settings: Compound concentration 1000.0 nM
# [17] = biological target: Mitogen-activated protein kinase 15 (Homo sapiens) (UniProt Q8TD08); settings: Compound concentration 1000.0 nM
# [18] = biological target: Serine/threonine-protein kinase/endoribonuclease IRE1 (Homo sapiens) (UniProt O75460); settings: Compound concentration 1000.0 nM
# [19] = biological target: Fibroblast growth factor receptor 1 (Homo sapiens) (UniProt P11362); settings: Compound concentration 1000.0 nM
# [20] = biological target: Fibroblast growth factor receptor 2 (Homo sapiens) (UniProt P21802); settings: Compound concentration 1000.0 nM
# [21] = biological target: Fibroblast growth factor receptor 3 (Homo sapiens) (UniProt P22607); settings: Compound concentration 1000.0 nM
# [22] = biological target: Hormonally up-regulated neu tumor-associated kinase (Homo sapiens) (UniProt P57058); settings: Compound concentration 1000.0 nM
# [23] = biological target: Inhibitor of nuclear factor kappa-B kinase subunit beta (Homo sapiens) (UniProt O14920); settings: Compound concentration 1000.0 nM
# [24] = biological target: Leucine-rich repeat serine/threonine-protein kinase 2 (Homo sapiens) (UniProt Q5S007); settings: Compound concentration 1000.0 nM
# [25] = biological target: Mitogen-activated protein kinase kinase kinase 13 (Homo sapiens) (UniProt O43283); settings: Compound concentration 1000.0 nM
# [26] = biological target: Mitogen-activated protein kinase kinase kinase 15 (Homo sapiens) (UniProt Q6ZN16); settings: Compound concentration 1000.0 nM
# [27] = biological target: Mitogen-activated protein kinase kinase kinase kinase 4 (Homo sapiens) (UniProt O95819); settings: Compound concentration 1000.0 nM
# [28] = biological target: Dual specificity mitogen-activated protein kinase kinase 3 (Homo sapiens) (UniProt P46734); settings: Compound concentration 1000.0 nM
# [29] = biological target: Tyrosine-protein kinase Mer (Homo sapiens) (UniProt Q12866); settings: Compound concentration 1000.0 nM
# [30] = biological target: Muscle, skeletal receptor tyrosine-protein kinase (Homo sapiens) (UniProt O15146); settings: Compound concentration 1000.0 nM
# [31] = biological target: Myosin light chain kinase, smooth muscle (Homo sapiens) (UniProt Q15746); settings: Compound concentration 1000.0 nM
# [32] = biological target: Serine/threonine-protein kinase Nek2 (Homo sapiens) (UniProt P51955); settings: Compound concentration 1000.0 nM
# [33] = biological target: Serine/threonine-protein kinase Nek9 (Homo sapiens) (UniProt Q8TD19); settings: Compound concentration 1000.0 nM
# [34] = biological target: Phosphatidylinositol 3-kinase C2 domain-containing subunit gamma (Homo sapiens) (UniProt O75747); settings: Compound concentration 1000.0 nM
# [35] = biological target: Phosphatidylinositol 4,5-bisphosphate 3-kinase catalytic subunit gamma isoform (Homo sapiens) (UniProt P48736); settings: Compound concentration 1000.0 nM
# [36] = biological target: cAMP-dependent protein kinase catalytic subunit alpha (Homo sapiens) (UniProt P17612); settings: Compound concentration 1000.0 nM
# [37] = biological target: Serine/threonine-protein kinase PLK1 (Homo sapiens) (UniProt P53350); settings: Compound concentration 1000.0 nM
# [38] = biological target: Receptor-interacting serine/threonine-protein kinase 1 (Homo sapiens) (UniProt Q13546); settings: Compound concentration 1000.0 nM
# [39] = biological target: Receptor-interacting serine/threonine-protein kinase 4 (Homo sapiens) (UniProt P57078); settings: Compound concentration 1000.0 nM
# [40] = biological target: Rho-associated protein kinase 2 (Homo sapiens) (UniProt O75116); settings: Compound concentration 1000.0 nM
# [41] = biological target: Serine/threonine-protein kinase TAO1 (Homo sapiens) (UniProt Q7L7X3); settings: Compound concentration 1000.0 nM
# [42] = biological target: Serine/threonine-protein kinase tousled-like 1 (Homo sapiens) (UniProt Q9UKI8); settings: Compound concentration 1000.0 nM
# [43] = biological target: Serine/threonine-protein kinase WNK3 (Homo sapiens) (UniProt Q9BYP7); settings: Compound concentration 1000.0 nM
# Mitogen-activated protein kinase 6 (Homo sapiens), sequence (Q16659 whole entry): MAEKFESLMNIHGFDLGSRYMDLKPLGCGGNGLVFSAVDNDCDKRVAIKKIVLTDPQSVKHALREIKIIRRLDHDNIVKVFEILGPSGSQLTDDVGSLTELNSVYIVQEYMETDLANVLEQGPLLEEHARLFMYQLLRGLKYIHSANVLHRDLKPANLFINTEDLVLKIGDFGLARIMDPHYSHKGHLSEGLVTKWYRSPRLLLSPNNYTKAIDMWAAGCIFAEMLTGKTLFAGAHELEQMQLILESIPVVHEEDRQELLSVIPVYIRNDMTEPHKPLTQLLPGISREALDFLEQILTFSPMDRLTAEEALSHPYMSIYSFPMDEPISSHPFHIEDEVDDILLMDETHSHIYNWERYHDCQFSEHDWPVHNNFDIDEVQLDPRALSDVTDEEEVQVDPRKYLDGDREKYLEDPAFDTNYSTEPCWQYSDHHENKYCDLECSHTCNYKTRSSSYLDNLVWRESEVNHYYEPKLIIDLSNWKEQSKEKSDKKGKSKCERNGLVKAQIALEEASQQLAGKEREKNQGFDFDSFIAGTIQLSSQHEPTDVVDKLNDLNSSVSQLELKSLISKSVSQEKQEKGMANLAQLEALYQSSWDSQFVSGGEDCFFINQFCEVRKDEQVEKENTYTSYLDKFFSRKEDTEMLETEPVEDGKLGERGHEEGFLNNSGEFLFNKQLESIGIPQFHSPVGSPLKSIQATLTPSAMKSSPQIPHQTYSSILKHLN
# Serine/threonine-protein kinase/endoribonuclease IRE1 (Homo sapiens), sequence (O75460 19-977 limits assumed): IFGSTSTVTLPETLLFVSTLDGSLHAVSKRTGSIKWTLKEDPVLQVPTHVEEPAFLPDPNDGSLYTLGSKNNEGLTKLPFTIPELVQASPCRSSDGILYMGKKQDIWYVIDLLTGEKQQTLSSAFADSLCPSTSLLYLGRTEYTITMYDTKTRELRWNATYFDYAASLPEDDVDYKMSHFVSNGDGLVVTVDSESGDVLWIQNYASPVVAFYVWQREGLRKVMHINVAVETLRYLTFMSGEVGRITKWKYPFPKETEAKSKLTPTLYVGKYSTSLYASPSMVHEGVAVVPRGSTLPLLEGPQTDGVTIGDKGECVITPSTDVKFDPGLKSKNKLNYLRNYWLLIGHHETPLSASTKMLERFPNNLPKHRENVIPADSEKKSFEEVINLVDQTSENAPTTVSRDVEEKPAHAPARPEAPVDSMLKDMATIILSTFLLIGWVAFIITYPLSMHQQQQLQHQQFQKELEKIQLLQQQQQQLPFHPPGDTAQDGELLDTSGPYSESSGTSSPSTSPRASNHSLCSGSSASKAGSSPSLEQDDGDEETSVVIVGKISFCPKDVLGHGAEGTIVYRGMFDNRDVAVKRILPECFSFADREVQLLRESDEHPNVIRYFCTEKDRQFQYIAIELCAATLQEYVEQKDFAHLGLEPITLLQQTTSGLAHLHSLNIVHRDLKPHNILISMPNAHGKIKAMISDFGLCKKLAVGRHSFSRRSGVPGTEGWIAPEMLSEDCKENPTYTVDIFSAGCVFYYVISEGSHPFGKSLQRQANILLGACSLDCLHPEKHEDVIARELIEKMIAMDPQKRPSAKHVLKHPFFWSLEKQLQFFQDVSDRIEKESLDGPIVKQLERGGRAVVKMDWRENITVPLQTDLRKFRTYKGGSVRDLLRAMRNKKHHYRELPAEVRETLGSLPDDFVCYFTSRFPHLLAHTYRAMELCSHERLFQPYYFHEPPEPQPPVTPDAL
# Fibroblast growth factor receptor 2 (Homo sapiens), sequence (P21802 22-821 limits assumed): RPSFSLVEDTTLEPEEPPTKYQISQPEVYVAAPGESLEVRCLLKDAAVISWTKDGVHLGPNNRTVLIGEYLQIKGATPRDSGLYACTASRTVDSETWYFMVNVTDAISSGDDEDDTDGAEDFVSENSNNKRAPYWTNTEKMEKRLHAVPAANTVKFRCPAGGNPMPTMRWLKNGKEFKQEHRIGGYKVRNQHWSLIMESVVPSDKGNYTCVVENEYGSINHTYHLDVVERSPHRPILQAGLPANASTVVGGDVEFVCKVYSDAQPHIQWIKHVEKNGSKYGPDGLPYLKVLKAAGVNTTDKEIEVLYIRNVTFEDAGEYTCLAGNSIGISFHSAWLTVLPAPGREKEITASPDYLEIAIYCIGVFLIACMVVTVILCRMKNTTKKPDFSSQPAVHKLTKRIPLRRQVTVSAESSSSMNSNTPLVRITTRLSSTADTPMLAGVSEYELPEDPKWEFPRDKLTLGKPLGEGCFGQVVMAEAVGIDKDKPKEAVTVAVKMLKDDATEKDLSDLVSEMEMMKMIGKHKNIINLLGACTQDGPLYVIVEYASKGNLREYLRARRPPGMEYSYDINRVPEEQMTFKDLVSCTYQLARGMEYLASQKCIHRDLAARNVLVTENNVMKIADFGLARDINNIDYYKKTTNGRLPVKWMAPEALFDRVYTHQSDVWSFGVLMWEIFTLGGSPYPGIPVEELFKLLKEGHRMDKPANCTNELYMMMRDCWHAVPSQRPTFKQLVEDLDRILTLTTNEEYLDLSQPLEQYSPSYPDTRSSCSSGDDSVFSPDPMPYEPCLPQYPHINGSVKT
# Receptor-interacting serine/threonine-protein kinase 1 (Homo sapiens), sequence (Q13546 whole entry): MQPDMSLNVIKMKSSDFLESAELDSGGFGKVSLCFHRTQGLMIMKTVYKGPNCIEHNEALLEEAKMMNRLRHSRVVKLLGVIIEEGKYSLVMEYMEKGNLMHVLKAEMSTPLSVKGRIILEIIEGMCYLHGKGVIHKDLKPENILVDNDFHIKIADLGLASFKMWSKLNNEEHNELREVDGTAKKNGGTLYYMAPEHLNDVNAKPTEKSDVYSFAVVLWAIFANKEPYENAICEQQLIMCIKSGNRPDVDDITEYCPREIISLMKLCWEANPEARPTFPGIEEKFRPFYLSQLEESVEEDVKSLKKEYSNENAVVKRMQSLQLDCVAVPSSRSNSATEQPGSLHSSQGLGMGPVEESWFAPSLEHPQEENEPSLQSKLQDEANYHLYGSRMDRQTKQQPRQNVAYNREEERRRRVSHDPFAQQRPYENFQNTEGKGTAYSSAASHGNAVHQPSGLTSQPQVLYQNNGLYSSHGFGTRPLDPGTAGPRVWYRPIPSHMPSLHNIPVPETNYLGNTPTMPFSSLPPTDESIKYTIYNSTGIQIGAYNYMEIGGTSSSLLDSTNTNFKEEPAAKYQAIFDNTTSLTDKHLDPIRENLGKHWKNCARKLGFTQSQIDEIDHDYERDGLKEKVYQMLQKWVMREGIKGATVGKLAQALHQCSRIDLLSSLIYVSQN
# Serine/threonine-protein kinase Nek2 (Homo sapiens), sequence (P51955 whole entry): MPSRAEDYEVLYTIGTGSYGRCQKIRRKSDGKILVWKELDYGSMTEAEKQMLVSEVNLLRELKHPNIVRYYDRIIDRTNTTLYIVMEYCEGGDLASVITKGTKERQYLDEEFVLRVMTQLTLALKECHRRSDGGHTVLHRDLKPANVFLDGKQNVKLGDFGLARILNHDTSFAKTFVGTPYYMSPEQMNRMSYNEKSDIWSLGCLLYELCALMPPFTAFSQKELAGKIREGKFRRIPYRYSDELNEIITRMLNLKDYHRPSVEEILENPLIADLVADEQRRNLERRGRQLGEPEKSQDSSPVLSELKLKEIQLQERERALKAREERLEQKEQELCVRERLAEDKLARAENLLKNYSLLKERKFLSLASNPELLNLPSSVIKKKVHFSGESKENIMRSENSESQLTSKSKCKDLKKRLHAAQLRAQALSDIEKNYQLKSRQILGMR
# Casein kinase I isoform gamma-2 (Homo sapiens), sequence (P78368 whole entry, looked up, canonical isoform): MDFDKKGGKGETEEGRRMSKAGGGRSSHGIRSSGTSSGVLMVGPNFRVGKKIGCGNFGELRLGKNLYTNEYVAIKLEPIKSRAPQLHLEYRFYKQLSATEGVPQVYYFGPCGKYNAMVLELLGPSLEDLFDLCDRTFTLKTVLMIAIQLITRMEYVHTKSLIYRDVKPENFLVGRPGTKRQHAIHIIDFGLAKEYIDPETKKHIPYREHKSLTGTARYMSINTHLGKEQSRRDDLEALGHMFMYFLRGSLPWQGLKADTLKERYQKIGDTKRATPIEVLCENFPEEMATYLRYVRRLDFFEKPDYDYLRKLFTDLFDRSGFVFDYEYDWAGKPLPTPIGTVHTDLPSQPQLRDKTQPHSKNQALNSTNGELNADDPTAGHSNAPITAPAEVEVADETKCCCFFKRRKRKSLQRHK
# Fibroblast growth factor receptor 3 (Homo sapiens), sequence (P22607 23-806 limits assumed): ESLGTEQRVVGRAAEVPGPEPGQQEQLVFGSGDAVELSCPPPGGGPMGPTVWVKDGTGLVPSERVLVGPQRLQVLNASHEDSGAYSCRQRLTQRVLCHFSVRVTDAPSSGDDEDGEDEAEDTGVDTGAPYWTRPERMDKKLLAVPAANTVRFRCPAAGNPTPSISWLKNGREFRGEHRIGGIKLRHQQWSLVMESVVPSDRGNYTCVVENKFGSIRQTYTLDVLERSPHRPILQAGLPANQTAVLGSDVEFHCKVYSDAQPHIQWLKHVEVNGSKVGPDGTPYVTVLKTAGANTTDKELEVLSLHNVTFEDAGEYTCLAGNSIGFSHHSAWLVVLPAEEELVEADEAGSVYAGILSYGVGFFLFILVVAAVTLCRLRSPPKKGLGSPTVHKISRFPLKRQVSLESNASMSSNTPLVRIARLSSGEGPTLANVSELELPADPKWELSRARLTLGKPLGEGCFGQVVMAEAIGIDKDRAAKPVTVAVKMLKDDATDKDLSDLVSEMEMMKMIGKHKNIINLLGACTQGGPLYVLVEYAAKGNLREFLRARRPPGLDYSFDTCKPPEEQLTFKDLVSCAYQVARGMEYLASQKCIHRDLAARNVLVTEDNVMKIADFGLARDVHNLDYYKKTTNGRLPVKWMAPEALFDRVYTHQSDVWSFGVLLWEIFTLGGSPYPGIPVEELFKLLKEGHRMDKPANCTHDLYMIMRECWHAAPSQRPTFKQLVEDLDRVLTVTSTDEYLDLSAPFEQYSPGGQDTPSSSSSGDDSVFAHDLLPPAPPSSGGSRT
compound,measurement,setting,value
CC(C)(C)OC(=O)N1CCCC1CNC1CCC(c2cc(F)ccc2F)(S(=O)(=O)c2ccc(Cl)cc2)CC1 (stereo not given) [GSI-NC],Ki,D(3) dopamine receptor,710 nM
same,Ki,Histamine H2 receptor,3790 nM
O=S(=O)(NC1CCC(c2cc(F)ccc2F)(S(=O)(=O)c2ccc(Cl)cc2)CC1)C(F)(F)F (stereo not given) [MRK-560],residual activity,[1],100%
same,residual activity,[2],92%
same,residual activity,[3],63%
same,residual activity,[4],100%
same,residual activity,[5],92%
same,residual activity,[6],100%
same,residual activity,[7],100%
same,residual activity,[8],68%
same,residual activity,[9],100%
same,residual activity,[10],87%
same,residual activity,[11],84%
same,residual activity,[12],99%
same,residual activity,[13],94%
same,residual activity,[14],89%
same,residual activity,[15],91%
same,residual activity,[16],100%
same,residual activity,[17],94%
same,residual activity,[18],100%
same,residual activity,[19],100%
same,residual activity,[20],84%
same,residual activity,[21],90%
same,residual activity,[22],100%
same,residual activity,[23],93%
same,residual activity,[24],96%
same,residual activity,[25],91%
same,residual activity,[26],78%
same,residual activity,[27],71%
same,residual activity,[28],83%
same,residual activity,[29],99%
same,residual activity,[30],100%
same,residual activity,[31],100%
same,residual activity,[32],98%
same,residual activity,[33],100%
same,residual activity,[34],100%
same,residual activity,[35],100%
same,residual activity,[36],100%
same,residual activity,[37],100%
same,residual activity,[38],100%
same,residual activity,[39],91%
same,residual activity,[40],100%
same,residual activity,[41],100%
same,residual activity,[42],100%
same,residual activity,[43],100%
